According to PubChem BioAssay (NCI):
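1) Cells in 96-well plates. 2) Compound, 48 h, 5 concentrations. 3) Linear interpolation between surrounding doses. 4) Unreached endpoint = highest concentration. At the TGI there is no net growth.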

What was measured:
Test in all cases: growth of human tumour cells (NCI), 48 h
[1] = test system: CCRF-CEM leukemia
[2] = test system: DU-145 prostate
[3] = test system: UACC-257 melanoma
[4] = test system: SK-MEL-5 melanoma
[5] = test system: SF-295 CNS
[6] = test system: OVCAR-4 ovarian
[7] = test system: SN12C renal
[8] = test system: HOP-62 NSCLC
[9] = test system: MDA-MB-231 breast
[10] = test system: OVCAR-3 ovarian
[11] = test system: SW-620 colon
[12] = test system: OVCAR-5 ovarian
[13] = test system: HCT-15 colon
[14] = test system: HCC-2998 colon
[15] = test system: NCI-H226 lung
[16] = test system: HT29 colon
[17] = test system: UO-31 renal
[18] = test system: K-562 leukemia
[19] = test system: A498 renal
[20] = test system: HCT-116 colon
[21] = test system: SR leukemia
[22] = test system: U251 CNS
[23] = test system: OVCAR-8 ovarian
[24] = test system: SF-268 CNS
[25] = test system: CAKI-1 renal
[26] = test system: HL-60(TB) leukemia
[27] = test system: MCF7 breast
[28] = test system: LOX IMVI melanoma
[29] = test system: NCI-H23 lung
[30] = test system: UACC-62 melanoma
[31] = test system: NCI/ADR-RES ovarian
[32] = test system: M14 melanoma
[33] = test system: EKVX NSCLC
[34] = test system: T-47D breast
[35] = test system: SK-OV-3 ovarian
[36] = test system: SK-MEL-2 melanoma
[37] = test system: IGROV1 ovarian
[38] = test system: HOP-92 NSCLC
[39] = test system: TK-10 renal
[40] = test system: SF-539 CNS
[41] = test system: RXF 393 renal
[42] = test system: MDA-N
[43] = test system: MALME-3M melanoma
[44] = test system: SNB-75 CNS
[45] = test system: A549 NSCLC
[46] = test system: NCI-H460 lung
[47] = test system: MOLT-4 leukemia
[48] = test system: PC-3 prostate
[49] = test system: HS 578T breast
[50] = test system: BT-549 breast
[51] = test system: MDA-MB-435
[52] = test system: SK-MEL-28 melanoma
[53] = test system: COLO 205 colon
[54] = test system: KM12 colon
[55] = test system: RPMI-8226 leukemia
[56] = test system: ACHN renal
[57] = test system: NCI-H522 lung
[58] = test system: 786-0 renal
[59] = test system: SNB-19 CNS

Measured: TGI

CO/N=C1\CC(NC(=O)C(F)(F)F)c2ccsc21 (centres undefined)
> 100 µM: [1] | [2] | [3] | [4] | [5] | [6] | [7] | [8] | [9] | [10] | [11] | [12] | [13] | [14] | [15] | [16] | [17] | [18] | [19] | [20] | [21] | [22] | [23] | [24] | [25] | [26] | [27] | [28] | [29] | [30] | [31] | [32] | [33] | [34] | [35] | [36] | [37] | [38] | [39] | [40] | [41] | [42] | [43] | [44] | [45] | [46] | [47] | [48] | [49] | [50] | [51] | [52] | [53]

O=c1c2c3c(sc2[nH]c(=S)n1-c1ccccc1)CCCc1ccc([N+](=O)[O-])cc1-3
38.7 µM: [41]
74 µM: [31]
77.3 µM: [14]
50.8 µM: [26]
35.3 µM: [18]
25.4 µM: [11]
72.6 µM: [50]
36.5 µM: [57]
27.3 µM: [37]
62.2 µM: [28]
61.3 µM: [16]
37.1 µM: [34]
85.8 µM: [21]
> 100 µM: [2] | [3] | [4] | [5] | [54] | [6] | [7] | [8] | [9] | [10] | [12] | [15] | [17] | [56] | [19] | [20] | [22] | [23] | [24] | [58] | [25] | [27] | [29] | [32] | [33] | [35] | [36] | [59] | [39] | [42] | [43] | [45] | [46] | [48] | [49] | [51] | [52] | [53]
62.7 µM: [55]
72.7 µM: [13]
85 µM: [30]
52 µM: [47]
76.6 µM: [38]
